The values below come from patent US11345666B2, “Phenyl and pyridinyl substituted imidazoles as modulators of RORγT” (Janssen Pharmaceutica NV, priority 2018, dated 2022).

The subject of assay [1] is Th17-dependent learned helplessness. Particulars: mice; cited from earlier work.
The test system of the next assay is obese diabetic mice. The conditions noted are these: cited from earlier work.
The target in assay [2] is human RORγt ligand binding domain (RORγt LBD) (Homo sapiens (Human), UniProt P51449). Nature of the assay: RORγt ThermoFluor assay. The method in brief:
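Thermal shift of His-tagged human RORγt LBD (0.065 mg/mL) with 60 μM 1,8-ANS in 100 mM Hepes pH 7.0, 10 mM NaCl, 2.5 mM GSH, 0.002% Tween-20, heated at 1° C./min. Compounds in 1:2 series from a 10 mM DMSO stock; KD estimated from ΔTm using protein unfolding thermodynamics.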
For orientation: In DSF a fluorescence change marks the thermal transition of the protein.

The target of the next assay is full-length human RORγt (Homo sapiens (Human), UniProt P51449). The experiment in a line: RORγt (full-length human) reporter assay, conditions A or B. Format: cell-based. Particulars: for IC50: HEK293T cells, read-out: RORγt (FL) Reporter Assay A or B, IC50. The method in brief:
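HEK293T cells transiently co-transfected (PEI) with GAL4-DBD–RORγt, GAL4-firefly luciferase and CMV-Renilla reporters; condition A 35,000 cells/well, 170.5 ng DNA/well; condition B 8750 cells/well, 42.6 ng DNA/well.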
(Reporter assays use an easily measured gene product as a stand-in for the process of interest.)

Molecules are shown by their SMILES. Marks after values point to notes of the source that are not given here.

Chain of full-length human RORγt (P51449 other isoform, or with tags, fused parts or gaps): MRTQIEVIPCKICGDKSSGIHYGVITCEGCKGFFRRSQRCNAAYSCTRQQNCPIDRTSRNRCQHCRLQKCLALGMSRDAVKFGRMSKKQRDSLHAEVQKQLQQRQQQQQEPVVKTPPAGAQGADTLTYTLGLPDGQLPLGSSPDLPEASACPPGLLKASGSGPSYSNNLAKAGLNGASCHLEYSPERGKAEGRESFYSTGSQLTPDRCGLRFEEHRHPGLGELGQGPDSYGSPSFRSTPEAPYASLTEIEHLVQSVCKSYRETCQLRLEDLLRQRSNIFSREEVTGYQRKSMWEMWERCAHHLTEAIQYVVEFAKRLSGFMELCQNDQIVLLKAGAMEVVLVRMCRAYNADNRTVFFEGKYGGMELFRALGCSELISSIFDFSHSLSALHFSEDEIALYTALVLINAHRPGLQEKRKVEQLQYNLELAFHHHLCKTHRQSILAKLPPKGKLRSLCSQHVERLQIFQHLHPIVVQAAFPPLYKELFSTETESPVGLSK
Chain of human RORγt ligand binding domain (RORγt LBD) (P51449 other isoform, or with tags, fused parts or gaps): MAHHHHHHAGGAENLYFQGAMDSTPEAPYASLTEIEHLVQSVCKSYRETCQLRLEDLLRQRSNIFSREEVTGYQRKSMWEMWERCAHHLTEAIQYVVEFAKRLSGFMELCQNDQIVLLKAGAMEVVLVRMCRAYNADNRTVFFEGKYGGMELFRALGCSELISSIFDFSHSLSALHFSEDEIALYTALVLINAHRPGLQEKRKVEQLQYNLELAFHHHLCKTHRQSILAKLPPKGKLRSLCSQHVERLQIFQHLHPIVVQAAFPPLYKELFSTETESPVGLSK

`CC(=O)Nc1nc(C)c(S(=O)(=O)Nc2ccc(C(O)(C(F)(F)F)C(F)(F)F)cc2)s1` [SR1001]: in assay [1], the Th17-dependent learned helplessness entry is recorded as “reduced”.

In the case of `CC(=O)N1CCN(Cc2ccc(-c3ccc(C(O)(C(F)(F)F)C(F)(F)F)cc3)cc2)CC1` [SR1555], in the assay on obese diabetic mice, the body weight entry is listed as “reduced”, the fat mass entry is given as “significant reduction”, the food intake result was “modest reduction” and the insulin sensitivity entry is listed as “improved”.

On to `CCc1nc(C(=O)NC[C@H]2CC[C@H](S(C)(=O)=O)CC2)c(C)n1-c1ncc(C[C@@H](C)C(F)(F)F)cc1OC(F)F` (single isomer, unassigned) [Example 80, 1-(3-(Difluoromethoxy)-5-((R*)-3,3,3-trifluoro-2-methylpropyl)pyridin-2-yl)-2-ethyl-5-methyl-N-(((1r,4R)-4-(methylsulfonyl)cyclohexyl)methyl)-1H-imidazole-4-carboxamide], for which binding in assay [2] was characterised by a dissociation constant (Kd) of 58 nM. The inhibition at 3 µM at full-length human RORγt (3 μM compound concentration (*), read-out: RORγt (FL) Reporter Assay A or B, % inhibition) turned out to be 113%. The half-inhibitory concentration (IC50) on full-length human RORγt came out at 54 nM.

`CCc1nc(C(=O)NC[C@H]2CC[C@H](S(=O)(=O)N(C)C)CC2)c(Cl)n1-c1ncc(CC(C)(C)C(F)(F)F)cc1OC(F)F` [Example 70, 5-Chloro-1-(3-(difluoromethoxy)-5-(3,3,3-trifluoro-2,2-dimethylpropyl)pyridin-2-yl)-N-(((1r,4r)-4-(N,N-dimethylsulfamoyl)cyclohexyl)methyl)-2-ethyl-1H-imidazole-4-carboxamide] registered a Kd in assay [2] of 320 nM. Besides, the “RORγt (FL) Reporter Assay A or B, % inhibition” value at full-length human RORγt (3 μM compound concentration (*)) is 88* %. The IC50 at full-length human RORγt was determined as 350 nM.

For orientation: Kd means the constant that tells how readily two partners part at equilibrium. What is called inhibition is the change of the read-out against control, counted positive when it falls. In general, IC50 refers to the concentration needed to halve the response being measured.
